How the values were obtained:
[1] = Stability at high temperature of the crystalline form; type: physicochemical; conditions: up to its melting point
[2] = type: physicochemical
[3] = Loss in mass (dehydration) of monohydrate form C at low humidity; type: physicochemical; conditions: below 50% humidity and between 20° C. and 80° C.; 1 mole of water/mole of the acid
Description: According to another aspect of the present invention, form A can also be obtained from another monohydrate crystalline form known hereinbelow as form C. Below 50% humidity and between 20° C. and 80° C., form C undergoes a loss in mass of 3.7% by weight (1 mole of water/mole of the acid). […] Form B is obtained more particularly by heating form C to 70° C. or from form C held at 25° C. at 0% humidity.

Question: What does the source list for `COc1ccc2nccc([C@@H](O)CC[C@@H]3CCN(CCSc4cccs4)C[C@@H]3C(=O)O)c2c1` [Form A, (3R,4R)-4-[3-(S)-hydroxy-3-(6-methoxyquinolin-4-yl)propyl]-1-[2-(2-thienylthio)ethyl]piperidine-3-carboxylic acid]?
Answer: stability at high temperature [1]: stable at high temperature, namely up to its melting point; hygroscopicity ([2]; solid crystalline form): not hygroscopic; state after storage ([2]; storage at 97% relative humidity for 11 weeks at 20° C.): still anhydrous and stable

Question: Which “loss in mass (dehydration to form B)” value [3] does the source give for `COc1ccc2nccc([C@@H](O)CC[C@@H]3CCN(CCSc4cccs4)C[C@@H]3C(=O)O)c2c1` [Form C, (3R,4R)-4-[3-(S)-hydroxy-3-(6-methoxyquinolin-4-yl)propyl]-1-[2-(2-thienylthio)ethyl]piperidine-3-carboxylic acid] here?
Answer: Its value is 3.7 % by weight.

Source: patent publication US6982334B2, “Crystalline form of (3R,4R)-4-[3-(S)-hydroxy-3-(6-methoxyquinolin-4-yl)propyl]-1-[2-(2-thienylthio)ethyl]piperindine-3-carboxylic acid” (Aventis Pharma S.A., priority 2002, dated 2006)
